Measurements reported in ChEMBL document CHEMBL1149706, “Discovering benzamide derivatives as glycogen phosphorylase inhibitors and their binding site at the enzyme” (Bioorg Med Chem, 2007).

Assay: Inhibition of rabbit muscle GPa
Design: species or system Oryctolagus cuniculus

Row | Structure (SMILES) | IC50
1 | O=C(Nc1ccccn1)c1cccc(C(=O)Nc2ccccn2)n1 | 425 µM
2 | Cn1ccnc1Sc1cc(C(=O)Nc2ccc(N)cc2)c(N)cc1F | 91.1 µM
3 | O=C(CN1CCN(c2ccccc2F)CC1)Nc1cccc(C(F)(F)F)c1 | 78.5 µM
4 | COc1cccc(NC(=O)c2cc(Sc3nccn3C)c(F)cc2N)c1 | 166 µM
5 | O=C(Nc1nncs1)c1ccc(C(=O)Nc2nncs2)cc1 | 269 µM
6 | O=C(CN1CCN(c2ccccc2)CC1)Nc1nccs1 | 96.9 µM
7 | COc1ccc(NC(=O)c2cc(Sc3nccn3C)c(F)cc2N)cc1 | 107 µM
8 | Cc1ccc(NC(=O)c2cc(Sc3nccn3C)c(F)cc2N)cc1 | 70.1 µM
9 | Cn1ccnc1Sc1cc(C(=O)Nc2cccc(C#N)c2)c(N)cc1F | 9.87 µM
10 | O=C(Nc1nccs1)c1ccc(C(=O)Nc2nccs2)cc1 | 337 µM
11 | Cn1ccnc1Sc1cc(C(=O)Nc2cccc(C(F)(F)F)c2)c(N)cc1F | 8.95 µM
12 | O=C(CN1CCN(c2ccccc2F)CC1)Nc1nccs1 | 35.8 µM
13 | Cn1ccnc1Sc1cc(C(=O)Nc2ccc(C#N)cc2)c(N)cc1F | 96.1 µM
14 | COc1ccccc1N1CCN(CC(=O)Nc2cccc(C(F)(F)F)c2)CC1 | 46.1 µM
15 | O=C(Nc1ccccn1)c1cccc(C(=O)Nc2ccccn2)c1 | 57.6 µM

More lines, now with the values ahead:

Row | IC50 | Structure (SMILES)
16 | 2.68 µM | Cn1ccnc1Sc1cc(C(=O)Nc2cccc(N)c2)c(N)cc1F
17 | 215 µM | Cn1ccnc1Sc1cc(C(=O)Nc2ccccc2)c(N)cc1F
18 | 41.8 µM | COc1ccccc1NC(=O)c1cc(Sc2nccn2C)c(F)cc1N
19 | 153 µM | Cn1ccnc1Sc1cc(C(=O)NCc2ccccc2)c(N)cc1F
20 | 30.9 µM | Cn1ccnc1Sc1cc(C(=O)Nc2cccc(F)c2)c(N)cc1F
21 | 75.9 µM | Cn1ccnc1Sc1cc(C(=O)Nc2ccccc2C#N)c(N)cc1F
22 | 95.3 µM | Cn1ccnc1Sc1cc(C(=O)Nc2ccccc2N)c(N)cc1F
